In patent publication US12391695B2, “PRMT5 inhibitors” (Lupin Limited, priority 2019, dated 2025):
Like-named read-outs stand apart in the source and are kept apart here.

Tests used:
SDMA = SDMA inhibition assay in Z-138 cells (ELISA with anti-SDMA antibody); format: cell-based; details: Homo sapiens, Z-138, 48 h, 48 h treatment
Method: Z-138 cells (ATCC, CRL-3001™) were seeded at a density of 1 million cells/well in transparent, flat bottomed tissue culture grade 48-well plates. Cells were treated with various concentration of test compounds for a period of 48 h. Cell lysate was prepared using 1× CST Lysis buffer (Cell Signaling Technology, USA) and 500 ng/well/50 μL of lysate in pH 9.6 carbonate buffer was coated on 96-well Maxisorb plate and incubated overnight at 4° C. The plate was washed twice in 1×PBS containing 0.05% Tween 20 and blocked in 1% BSA for 1 h at ambient temperature. Further, the plate was incubated first with primary antibody (anti-SDMA antibody; CST #13222s) at ambient temperature for 2 h and then with HRP-conjugated secondary antibody at ambient temperature for 1 h with 2 intermittent washing steps in between.
For luminiscence based detection, HRP substrates (substrate A+substrate B in a 1:1 proportion) were added followed by luminiscence reading after 30 min in Synergy™ 2 reader (Biotek, USA).
For absorbance based detection, TMB substrate was added followed by addition of STOP solution (2N H2SO4) post colour development and absorbance (excitation 450 nm and emission 540 nm) was measured in Synergy™ 2 reader (Biotek, USA).
% inhibition of SDMA was calculated relative to the vehicle control samples containing media with 0.1% DMSO alone as per the formula below. (Avg. of Untreated Control−Avg. of Test)×100 Avg. Of Untreated Control
The IC50 values of individual compounds were calculated with Non Linear Regression Analysis using Graph Pad Prism (Graph Pad software, Inc, USA).

Z-138 cells = assay: Anti-cancer assay (Z-138), cell viability by CellTiterGlo; format: cell-based; details: Homo sapiens, 96 h treatment, read-out: IC50 (activity range), inhibition of cell viability
Method: Z-138 cells were seeded at a density of 2000-3000 cells per well in culture media (IMDM+10% FBS). PANC-1 (ATCC, CRL-1469™) and MIA PaCa-2 (ATCC, CRL-1420™) cells were seeded at a density of 200-300 cells per well in culture media (DMEM+10% FBS). Cells were seeded in opaque, flat bottomed tissue culture grade 96-well plates and Z-138 cells (suspension) were seeded and treated on the same day with various concentrations of test compounds. PANC-1 and MIA PaCa-2 cells, being adherent, were kept for overnight settlement at standard cell culture conditions (37° C., 5% CO2). On the following day, cells were treated with various concentrations of test compounds. Cells were treated with test compounds for a period of 96 h, 7 days and 10 days, for Z-138 cells, PANC-1 cells and MIA PaCa-2 cells, respectively. Cell viability was assessed using CellTiterGlo™ (Promega, USA) as per manufacturer's instructions. Relative Light Units (RLU) were read in Synergy™ 2 reader (Biotek, USA). The assay measures cellular ATP as an indicator of cell viability. RLU is proportional to the number of viable cells in the respective well. % inhibition of cell viability was calculated relative to the vehicle control samples containing media with 0.1% DMSO alone as per the formula below. (Avg. of Untreated Control−Avg. of Test)×100 Avg. Of Untreated Control
The IC50 values of individual compounds were calculated with Non Linear Regression Analysis using Graph Pad Prism (Graph Pad software, Inc, USA). • Anti-Cancer Assay (Z-138)

PRMT5:MEP50 = PRMT5:MEP50 (Homo sapiens, UniProt O14744); assay: PRMT5 biochemical assay (HTRF, biotinylated H4R3 substrate), protocols 1 and 2; details: 1 μM SAM, 50 nM biotinylated H4R3, protocol 1 or 2 not given, read-out: IC50 (activity range), inhibition of PRMT5
Chain of PRMT5:MEP50 (O14744 whole entry, the tested form may be a part): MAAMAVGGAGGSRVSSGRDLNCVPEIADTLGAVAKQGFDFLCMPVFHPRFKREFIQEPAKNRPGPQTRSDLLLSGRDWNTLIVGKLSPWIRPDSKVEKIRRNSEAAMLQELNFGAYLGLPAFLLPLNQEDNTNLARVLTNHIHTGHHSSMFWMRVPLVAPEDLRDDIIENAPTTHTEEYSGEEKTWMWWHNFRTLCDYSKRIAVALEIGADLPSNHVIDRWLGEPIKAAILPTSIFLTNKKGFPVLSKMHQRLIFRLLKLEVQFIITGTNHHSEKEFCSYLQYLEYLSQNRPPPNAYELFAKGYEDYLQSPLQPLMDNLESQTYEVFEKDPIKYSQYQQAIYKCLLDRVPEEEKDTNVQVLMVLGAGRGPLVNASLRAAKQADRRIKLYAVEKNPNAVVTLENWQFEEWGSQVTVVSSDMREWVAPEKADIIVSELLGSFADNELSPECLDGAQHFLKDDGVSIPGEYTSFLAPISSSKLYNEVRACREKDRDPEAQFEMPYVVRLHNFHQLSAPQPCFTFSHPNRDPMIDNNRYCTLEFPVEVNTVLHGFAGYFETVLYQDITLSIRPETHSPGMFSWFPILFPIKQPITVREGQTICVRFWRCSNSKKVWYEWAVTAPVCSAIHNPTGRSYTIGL
Chain of PRMT5:MEP50 (Q9BQA1 whole entry partner, the tested form may be a part): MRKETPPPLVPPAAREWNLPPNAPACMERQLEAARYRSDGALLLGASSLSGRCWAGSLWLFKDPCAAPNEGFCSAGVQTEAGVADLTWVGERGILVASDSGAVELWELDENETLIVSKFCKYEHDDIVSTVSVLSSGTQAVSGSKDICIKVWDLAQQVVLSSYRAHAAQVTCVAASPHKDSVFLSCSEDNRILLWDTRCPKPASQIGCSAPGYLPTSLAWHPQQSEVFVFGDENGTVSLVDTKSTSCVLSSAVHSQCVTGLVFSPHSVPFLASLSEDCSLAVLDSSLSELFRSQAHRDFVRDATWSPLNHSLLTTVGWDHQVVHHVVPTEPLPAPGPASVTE
Method: (§1) Inhibitory effect of compounds on PRMT5 was assessed using HTRF detection technology in biochemical assay. Biotinylated H4R3 (residues 1-21) was used as a substrate. Compounds were pre-incubated with 15-25 ng PRMT5:MEP50 per well of a 384-well plate for 30 min at room temperature in the assay buffer containing 20 mM Bicine, pH 7.6, 25 mM NaCl, 2 mM DTT, 0.01% Chicken albumin and 0.01% Tween-20. Reaction was initiated by adding 1 μM of SAM and 50 nM biotinylated H4R3. Total assay volume was 15 μL. Reaction was continued for 120 min at room temperature. Then detection solution containing Streptavidin-Eu cryptate, anti-rabbit IgG-XL-665, Histone H4R3 Dimethyl Symmetric (H4R3me2s) Polyclonal Antibody, all prepared in HTRF detection buffer was added and further incubated for 30 min at room temperature. HTRF signal was recorded in PHERAStar microplate reader. Ratio of signal obtained at 665 nm and 620 nm was used to compute the percent inhibition of compound as follows % Inhibition=100−((Test Ratio−Negative control Ratio)/(Positive control Ratio−Negative control Ratio)*100) where Positive control=PRMT5+SAM+H4R3 Negative control=PRMT5+H4R3 Biochemical Assay Protocol 2
as §1, with “2.5” for “15-25”, “4 h” for “120 min”, “control=PRMT5+H4R3” for “control=PRMT5+H4R3 Biochemical Assay Protocol 2”

[1] = read-out: IC50 (activity range), SDMA inhibition
[2] = range with mixed units pM/nM, units kept in the value

Row | IC50 (SDMA; [1]) [pM] | IC50 (Z-138 cells) [pM] | IC50 (PRMT5:MEP50) [nM] | IC50 (SDMA; [2]) [pM] | IC50 (Z-138 cells; [2]) [pM] | Compound
1 | 1100 to 50000 | > 1000 | 0.25 to 0.95 |  |  | Cc1cn([C@@H]2C=C(CCc3cc(C(F)F)c(F)c4c3CNCC4)[C@@H](O)[C@H]2O)c2ncnc(N)c12 [Compound 25, (1S,2R,5R)-5-(4-amino-5-methyl-7H-pyrrolo[2,3-d]pyrimidin-7-yl)-3-(2-(6-(difluoromethyl)-5-fluoro-1,2,3,4-tetrahydroisoquinolin-8-yl)ethyl)cyclopent-3-ene-1,2-diol]
2 | 1100 to 50000 | > 1000 | 0.25 to 0.95 |  |  | Cc1cc2c(c(CCC3=C[C@@H](n4ccc5c(N)ncnc54)[C@H](O)[C@@H]3O)c1)CNCC2 [Compound 8, (1S,2R,5R)-5-(4-amino-7H-pyrrolo[2,3-d]pyrimidin-7-yl)-3-(2-(6-methyl-1,2,3,4-tetrahydroisoquinolin-8-yl)ethyl)cyclopent-3-ene-1,2-diol]
3 |  |  | 0.25 to 0.95 | 100 to 1000 | 101 to 1000 | Nc1ncnc2c1ccn2[C@@H]1C=C(CCc2cc(C(F)F)cc3c2CNCC3)[C@@H](O)[C@H]1O [Compound 10, (1S,2R,5R)-5-(4-amino-7H-pyrrolo[2,3-d]pyrimidin-7-yl)-3-(2-(6-(difluoromethyl)-1,2,3,4-tetrahydroisoquinolin-8-yl)ethyl)cyclopent-3-ene-1,2-diol]
4 | 1100 to 50000 | > 1000 | 0.25 to 0.95 |  |  | Nc1cc(=O)n([C@@H]2C=C(COc3cc(F)c4cc(Cl)c(N)nc4c3)[C@@H](O)[C@H]2O)cn1 [Compound 17, 6-amino-3-((1R,4R,5S)-3-(((2-amino-3-chloro-5-fluoroquinolin-7-yl)oxy)methyl)-4,5-dihydroxycyclopent-2-en-1-yl)pyrimidin-4 (3H)-one]
5 | 1100 to 50000 | > 1000 | 0.25 to 0.95 |  |  | Nc1cnc2ccc(CCC3=C[C@@H](n4ccc5c(N)ncnc54)[C@H](O)[C@@H]3O)cc2n1 [Compound 3, (1S,2R,5R)-5-(4-Amino-7H-pyrrolo[2,3-d]pyrimidin-7-yl)-3-(2-(3-aminoquinoxalin-6-yl)ethyl)cyclopent-3-ene-1,2-diol]
6 | 1100 to 50000 | > 1000 | 0.25 to 0.95 |  |  | Nc1ncnc2c1ccn2[C@@H]1C=C(CCc2ccc(C(F)F)c3c2CNCC3)[C@@H](O)[C@H]1O [Compound 11, (1S,2R,5R)-5-(4-amino-7H-pyrrolo[2,3-d]pyrimidin-7-yl)-3-(2-(5-(difluoromethyl)-1,2,3,4-tetrahydroisoquinolin-8-yl)ethyl)cyclopent-3-ene-1,2-diol]
7 |  |  | 0.25 to 0.95 | 100 to 1000 | 101 to 1000 | Cc1ncnc2c1ccn2[C@@H]1C=C(CCc2cc(C(F)F)c(F)c3c2CNCC3)[C@@H](O)[C@H]1O [Compound 15, (1S,2R,5R)-3-(2-(6-(difluoromethyl)-5-fluoro-1,2,3,4-tetrahydroisoquinolin-8-yl)ethyl)-5-(4-methyl-7H-pyrrolo[2,3-d]pyrimidin-7-yl)cyclopent-3-ene-1,2-diol]
8 | 1100 to 50000 | > 1000 | > 0.95 |  |  | Cc1cc(=O)n([C@@H]2C=C(COc3cc(F)c4cc(Cl)c(N)nc4c3)[C@@H](O)[C@H]2O)cn1 [Compound 18, 3-((1R,4R,5S)-3-(((2-amino-3-chloro-5-fluoroquinolin-7-yl)oxy)methyl)-4,5-dihydroxycyclopent-2-en-1-yl)-6-methylpyrimidin-4 (3H)-one]
9 | 1100 to 50000 |  | 0.25 to 0.95 |  | 101 to 1000 | Nc1ncnc2c1ccn2[C@@H]1C=C(CCc2cc(C(F)F)c(F)c3c2CNCC3)[C@@H](O)[C@H]1O [Compound 13, (1S,2R,5R)-5-(4-amino-7H-pyrrolo[2,3-d]pyrimidin-7-yl)-3-(2-(6-(difluoromethyl)-5-fluoro-1,2,3,4-tetrahydroisoquinolin-8-yl)ethyl)cyclopent-3-ene-1,2-diol]
10 |  | > 1000 | > 0.95 | 100 to 1000 |  | Nc1nc2cc(OCC3=C[C@@H](n4cnc(N)c(F)c4=O)[C@H](O)[C@@H]3O)cc(F)c2cc1Cl [Compound 19, 6-amino-3-((1R,4R,5S)-3-(((2-amino-3-chloro-5-fluoroquinolin-7-yl)oxy)methyl)-4,5-dihydroxycyclopent-2-en-1-yl)-5-fluoropyrimidin-4 (3H)-one]
